The text below walks through data of US6492373B2, “6-fluoro-1,4-dihydro-7-[4-(2-hydroxyiminoethyl)-1-piperazinyl]-4-oxoquinoline-3-carboxylic acid derivatives, their preparation and pharmaceutical compositions” (Pharmaceutical Industry Technology and Development Center, priority 2000, dated 2002).

Type in all cases: cell-based
In one experiment the test system is CCRF-CEM (leukemia). Description: NCI in vitro tumor cell growth inhibition (GI50). The settings on record: Homo sapiens.
The test system of another experiment is HL-60 (TB) (leukemia). Description: NCI in vitro tumor cell growth inhibition (GI50). To be noted: Homo sapiens.
The next experiment deals with RPMI-8226 (leukemia). Nature of the experiment: NCI in vitro tumor cell growth inhibition (GI50). To be noted: Homo sapiens.
In experiment [1] the test system is EKVX (non-small cell lung cancer). Nature of the experiment: NCI in vitro tumor cell growth inhibition (GI50). The settings on record: Homo sapiens.
Experiment [2] has as its system HOP-62 (non-small cell lung cancer). Nature of the experiment: NCI in vitro tumor cell growth inhibition (GI50). To be noted: Homo sapiens.
Experiment [3] concerns NCI-H226 (non-small cell lung cancer). Nature of the experiment: NCI in vitro tumor cell growth inhibition (GI50). The settings on record: Homo sapiens.
The subject of another experiment is SK-OV-3 (ovarian cancer). Description: NCI in vitro tumor cell growth inhibition (GI50). The settings on record: Homo sapiens.
A further experiment has as its system SK-OV-4 (ovarian cancer). Description: NCI in vitro tumor cell growth inhibition (GI50). The settings on record: Homo sapiens.
The next experiment has as its system SK-OV-5 (ovarian cancer). Nature of the experiment: NCI in vitro tumor cell growth inhibition (GI50). To be noted: Homo sapiens.
For a further experiment, the system named is CAKI-1 (renal cancer). Description: NCI in vitro tumor cell growth inhibition (GI50). To be noted: Homo sapiens.
For the next experiment, the system named is RXF-393 (renal cancer). Nature of the experiment: NCI in vitro tumor cell growth inhibition (GI50). The settings on record: Homo sapiens.
The next experiment relates to UO-31 (renal cancer). Nature of the experiment: NCI in vitro tumor cell growth inhibition (GI50). The settings on record: Homo sapiens.
Experiment [4] relates to 60 human tumor cell lines. Nature of the experiment: NCI in vitro tumor cell growth inhibition, whole panel. The settings on record: for GI50: Homo sapiens, Mean values over 60 cell lines tested; for Range: Ratio of GI50 value for the least sensitive cell to the most sensitive cell.

A word on the GI50: it is the concentration at which growth is held to half of that of the control. High values mean less potent growth inhibition, low ones more potent growth inhibition. Turning to `CCn1cc(C(=O)O)c(=O)c2cc(F)c(N3CCN(CC(=NO)c4ccc(F)cc4)CC3)cc21` [Exp. 9, 1-Ethyl-6-fluoro-7-{4-[2-(4-fluorophenyl)-2-hydroxyimino-ethyl]-1-piperazinyl}-4-oxo-1,4-dihydro-3-quinolinecarboxylic acid], the GI50 is 10.5 µM in the experiment on CCRF-CEM (leukemia); 0.98 µM in the experiment with HL-60 (TB) (leukemia); 22.9 µM in the experiment with RPMI-8226 (leukemia); 42.6 µM in experiment [1]; 42.6 µM in [2]; 53.5 µM in experiment [3]. The GI50 was 32 µM in the experiment on SK-OV-3 (ovarian cancer); 39.4 µM in the experiment with SK-OV-4 (ovarian cancer); > 100 µM in the experiment with SK-OV-5 (ovarian cancer); 1.89 µM with CAKI-1 (renal cancer); 0.17 µM in the experiment on RXF-393 (renal cancer); 0.13 µM in the experiment with UO-31 (renal cancer). The GI50 in [4] worked out at 21.5 µM. Further, in experiment [4], the Range is recorded as 758.

With `CCn1cc(C(=O)O)c(=O)c2cc(F)c(N3CCN(CC(=NO)c4ccc(Cl)cc4)CC3)cc21` [Exp. 10, 1-Ethyl-6-fluoro-7-{4-[2-(4-chlorophenyl)-2-hydroxyimino-ethyl]-1-piperazinyl}-4-oxo-1,4-dihydro-3-quinolinecarboxylic acid], the GI50 with CCRF-CEM (leukemia) was determined as 67.4 µM; in the experiment with HL-60 (TB) (leukemia), 1.29 µM; with RPMI-8226 (leukemia) it was 3.21 µM; in [1], 19.2 µM; in [2], 28.6 µM; in experiment [3] it was 20.3 µM. Moreover, the GI50 in the experiment with SK-OV-3 (ovarian cancer) amounted to 28.7 µM; in the experiment with SK-OV-4 (ovarian cancer), 32.1 µM; in the experiment with SK-OV-5 (ovarian cancer) it was 22.8 µM; in the experiment on CAKI-1 (renal cancer), 0.4 µM; with RXF-393 (renal cancer), 0.72 µM; with UO-31 (renal cancer), 0.03 µM. In addition, in [4], the GI50 is 9.31 µM. Moreover, in experiment [4], the Range turned out to be 2291.
